From BigSolDB 2.1

CN1C(C(=O)Nc2ccccn2)=C(O)c2ccccc2S1(=O)=O
solubility (mole fraction)
Details	293.2 K	298.2 K	303.2 K	308.2 K	313.2 K
in ethanol	0.000103	0.000177	0.000334	0.000553	0.00078
in ethyl acetate	0.00426	0.00497	0.0057	0.00661	0.00741
